Drawing on the METLIN SMRT retention time set (Domingo-Almenara et al. 2019), this text covers RP-LC retention time for 80 molecules.

Molecules are shown by their SMILES.

A short description of the data set: gradient 5% acetonitrile 3 min, to 50% in 2 min, to 85% in 15 min, held 3 min, 100 µL/min. The note with it: column: Zorbax Extend-C18 2.1 x 50 mm; eluents: water / acetonitrile, 0.1% formic acid. The method in brief:
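Over 3 months, pure standards in mixtures of ~100 molecules were run by HPLC coupled to a quadrupole time-of-flight mass spectrometer in positive and negative ionization mode. The column was a Zorbax Extend-C18 (2.1 × 50 mm, 1.8 μm) at 100 μL/min, eluted with water and acetonitrile each holding 0.1% formic acid, with 40 μL dead and 900 μL dwell volumes. Retention time was determined from adduct peaks chosen by software and checked manually.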
Turning to `Cc1cccc2nnc(N3CCN(C(=O)c4ccc(Cl)s4)CC3)n12`, the RP-LC retention time turned out to be 701 s. In turn, `CN1[C@H]2C[C@H](OC(=O)[C@H](CO)c3ccccc3)C[C@@H]1[C@@H](O)C2` yielded an RP-LC retention time of 596 s. Under `O=[N+]([O-])/C=C/c1cc2ccccc2[nH]1` stands 718 s; under `CC(C)CCNC(=O)C1Cn2cccc2C(=O)N1C` (stereo not given), 668 s. For `CC1(C(=O)NC2CCCCC2)CN(S(=O)(=O)c2ccccc2)CC(=O)N1c1ccc(F)cc1` (stereo not given) the value was 959 s; for `CS(=O)(=O)N1CCCN(C(=O)c2ccccc2)CC1`, 638 s; for `COCCNC(=O)CC1CCN(C(=O)c2[nH]c(C)cc2C)CC1`, 631 s.

In turn, `COc1ccc(-c2nc3ncccn3c2NCc2ccccc2)cc1OC` returned an RP-LC retention time of 682 s.

For `COCCNC(=O)C1CCCN(C(=O)c2[nH]c(C)c(C(=O)OC)c2C)C1` (stereo not given), the RP-LC retention time turned out to be 624 s. As to `CC1(C(N)=O)CC(c2ccccc2)=NO1` (stereo not given), the RP-LC retention time is 828 s.

In turn, `O=C(NCCn1nc(-c2ccco2)ccc1=O)c1n[nH]c2ccccc12` came in with an RP-LC retention time of 643 s. For `CCN1c2ccc(F)cc2C(=O)NC12CCN(C(=O)Cc1ccc(Cl)cc1)CC2` the value was 848 s.

For the molecule `COc1ccccc1N1CCN(CCCCN2C(=O)c3ccccc3C2=O)CC1`, the RP-LC retention time is 751 s.

`Cc1ccc(N2CCN(C(=O)c3cn(-c4cc(N5CCCCC5)ncn4)cn3)CC2)cc1` registered an RP-LC retention time of 994 s. Molecule `CCc1ccc(Nc2nc(C(=O)NC3CC3)nc3ccccc23)cc1` registered an RP-LC retention time of 791 s. Turning to `COc1ccc(-c2cc3n(n2)CCCN(C(=O)NCc2ccccc2)C3)cc1OC`, the RP-LC retention time is 929 s. For `CC(=O)N1CCCN(C2=NS(=O)(=O)C(c3ccccc3)=C2C)CC1` the value was 665 s; for `O=c1c(Nc2ccc(F)c(Cl)c2)nc2ccncc2n1Cc1ccccc1`, 831 s. Molecule `O=C(Cn1cccc1-c1nnc(C2CCC2)o1)N1CCc2ccccc21` returned an RP-LC retention time of 946 s. For `COc1cc(-c2nnc(-c3cccc(S(=O)(=O)N4CCOCC4)c3)o2)cc(OC)c1OC`, the RP-LC retention time amounted to 852 s.

Regarding `O=C(NCC(O)c1cccc2ccccc12)c1c(F)cccc1Cl` (stereo not given), the RP-LC retention time is 796 s.

`Fc1ccccc1N1CCN(c2ncccc2-c2nnc(-c3ccccc3)o2)CC1` returned an RP-LC retention time of 1150 s. For `COc1cc2c(cc1CNC(=O)c1ccc3c(c1)CC(C)O3)OCCCO2` (stereo not given) the value was 855 s; for `CCn1cc(C2=CCN(C(=O)NCc3cccc(F)c3)CC2)c2cccnc21`, 850 s. Molecule `Cc1cccc(NC(=O)CSc2cc(N3CCN(c4ccccc4F)CC3)ncn2)c1` showed an RP-LC retention time of 1110 s. Turning to `O=C(Nc1ccccc1F)N1CCC(n2cnc3ccc(Cl)cc3c2=O)CC1`, the RP-LC retention time stood at 806 s. Turning to `CCCc1cc(N2CCN(C(=O)c3ccncc3)CC2)nc2nnc(CC)n12`, the RP-LC retention time came to 580 s. Molecule `O=S(=O)(c1cccn2c(SCc3ccccc3F)nnc12)N1CCCCC1` came in with an RP-LC retention time of 869 s. `CCc1nc2cc(-c3noc(-c4cccc(F)c4)n3)ccc2o1` yielded an RP-LC retention time of 1230 s.

As for `Cc1ccc(NC(=O)C(C)Oc2ccc(F)cc2)cc1C` (stereo not given), the RP-LC retention time amounted to 956 s. For `Cc1nn(-c2ccc(-c3ccccc3)nn2)c(C)c1S(=O)(=O)N1CCC(C)CC1` the value was 1160 s. The molecule `CCCNc1cc(N2CCC(CCC(=O)NCc3ccc(F)c(Cl)c3)CC2)ncn1` gave an RP-LC retention time of 713 s. Regarding `CC(C)(C)c1ccc(O)c(NC(=O)c2cn(-c3ccc(S(=O)(=O)N4CCOCC4)cc3)cn2)c1`, the RP-LC retention time came out at 966 s. Molecule `O=C(NCc1ccc(F)cc1)N1CCc2nc[nH]c2C1` displayed an RP-LC retention time of 574 s.

`Cc1ccccc1-n1ncc2c(NCc3ccco3)ncnc21` had an RP-LC retention time of 708 s. Under `O=C(NCc1ccco1)C1CCN(Cc2cc3ccccc3n2Cc2ccc(Cl)cc2)CC1` stands 783 s; under `CN(C)C(=O)c1cc2c(s1)CCC(C(=O)NCc1nc3ccccc3n1C)C2` (stereo not given), 595 s; under `CC(C)CNC(=O)NCCC1CCN(S(=O)(=O)c2ccccc2)CC1`, 808 s. The molecule `CC(C)n1cc(S(=O)(=O)NCc2ccccc2Cl)c2cccnc21` returned an RP-LC retention time of 914 s. For `CCc1noc(NC(C)=O)c1-c1ccc(C)c(S(=O)(=O)Nc2cc(OC)cc(OC)c2)c1` the value was 854 s; for `Cn1c(CNC(=O)c2cccc(N3CCNC(c4ccccc4)C3)n2)nc2ccccc21` (stereo not given), 573 s; for `CCC(=O)N1CCc2cc(N3CC(C(=O)NC(C)c4ccccc4)CC3=O)ccc21` (stereo not given), 750 s. Molecule `CC(C)Cc1noc(C2(F)CCN(S(=O)(=O)c3cccc(Cl)c3)CC2)n1` displayed an RP-LC retention time of 1190 s.

For `CCc1ccc(-n2nc(CO)c(C(=O)NCc3ccc4c(c3)OCO4)n2)cc1`, the RP-LC retention time was 1030 s.

Turning to `Cc1nc2sc(C)c(C)n2c(=O)c1NC(=O)c1ccc(Br)o1`, the RP-LC retention time is 688 s. For `Cc1ccc(-n2ccc(=O)c(-c3nc(-c4cccc(C)c4)no3)n2)cc1`, the RP-LC retention time worked out at 974 s. `CCc1noc(NC(C)=O)c1-c1ccc(C)c(S(=O)(=O)NC2CCCCC2)c1`: the RP-LC retention time was 839 s. `CCOCCCNC(=O)N1CC(Oc2ccc(-c3nc(-c4ccccc4)no3)cc2)C1` had an RP-LC retention time of 985 s.

`CCOC(=O)c1cc(C)nc2c1c(=O)n(Cc1ccc(OC)cc1)c(=O)n2C` showed an RP-LC retention time of 1020 s.

`CCCN(CC1CCOC1)C(=O)Nc1ccc(CC)cc1` (stereo not given) showed an RP-LC retention time of 811 s. `O=C(Cn1c(=O)oc2ccccc21)N1CCCc2ccccc21` registered an RP-LC retention time of 866 s. Consider `Cn1cc(S(=O)(=O)N2CCCC2)cc1C(=O)N1CCN(c2ccccn2)CC1`, for which the RP-LC retention time was 594 s. The molecule `O=C(Nc1ccc2c(c1)OCCO2)N1CCC(n2c(-c3ccoc3)nc3cccnc32)C1` (stereo not given) came in with an RP-LC retention time of 648 s. `Cc1ccc2c(c1)C(O)(CC(=O)c1cccc(N)c1)C(=O)N2` (stereo not given) yielded an RP-LC retention time of 606 s. In turn, `O=C(NCc1ccccn1)C1CCc2sc(C(=O)N3CCCCCC3)cc2C1` (stereo not given) came in with an RP-LC retention time of 552 s. Regarding `O=C(Cn1c(=O)c2cc(-c3ccco3)nn2c2ncccc21)Nc1ccc(F)c(F)c1`, the RP-LC retention time is 843 s. Molecule `CC1(CNC(=O)NCCc2ccccc2)CCOCC1` returned an RP-LC retention time of 696 s.

Regarding `CNC(=O)c1nn(-c2ccc(OC)c(OC)c2)c(OC)cc1=O`, the RP-LC retention time came to 590 s. Consider `COc1cccc(NC(=O)N2CCc3cn(C)c4cccc(c34)C2)c1`, for which the RP-LC retention time is 771 s. On to `CC(C)(C)C(=O)N1CCN(Cc2noc(-c3ccc(F)cc3)n2)CC1`, for which the RP-LC retention time was 712 s.

Molecule `O=C(Nc1ccc(C(F)(F)F)cc1)c1cn(CC(O)c2ccccc2)nn1` (stereo not given) yielded an RP-LC retention time of 581 s. Take `Cc1ccc(C(C)NC(=O)c2nnc(-c3ccc(S(=O)(=O)N(C)C)cc3)o2)c(C)c1` (stereo not given): the RP-LC retention time came out at 984 s. As for `O=S(=O)(NC1CCCCCC1)c1ccc(-c2cc(C(F)(F)F)on2)o1`, the RP-LC retention time was 1170 s. The molecule `COc1ccc(CNC(=O)c2nc3cccnc3n(C)c2=O)cc1` registered an RP-LC retention time of 742 s. `CSc1ccc(-c2noc(Cn3ncn4nc(-c5ccc(C)cc5C)cc4c3=O)n2)cc1` came in with an RP-LC retention time of 1270 s.

Regarding `CCc1nc2cc(-c3noc(-c4ccc(Br)o4)n3)ccc2o1`, the RP-LC retention time is 1190 s.

`CCc1nc2cccnc2n1CCN1CCN(C(=O)Nc2ccc(Br)cc2)CC1` returned an RP-LC retention time of 631 s. `O=C(NCCc1cccs1)C1CCc2nc(N3CCCC3)ncc2C1` (stereo not given) yielded an RP-LC retention time of 857 s. In turn, `Clc1ccc(-c2nc(N3CCN(C4CCCCC4)CC3)c3ccccc3n2)cc1` gave an RP-LC retention time of 562 s. For `CCc1ccc(Nc2nc(C(=O)N3CCCCCC3)nc3ccccc23)cc1` the value was 910 s; for `CC(C)c1ccccc1NC(=O)CN1C(=O)NC2(CCCCC2)C1=O`, 807 s; for `COc1ccccc1Oc1c(NS(=O)(=O)c2ccc(C(C)(C)C)cc2)nc(-c2ncccn2)nc1OCCO`, 939 s. `CCN1c2ccccc2C(=O)NC12CCN(C(=O)Nc1cccc(OC)c1)CC2`: the RP-LC retention time was 703 s.

On to `Cc1nc(NCCNC(=O)c2cccc(C(F)(F)F)c2)cc(N2CCOCC2)n1`, for which the RP-LC retention time amounted to 588 s. As for `Cc1ccc(N2CC(NC(=O)Nc3ncccc3C)CC2=O)cc1` (stereo not given), the RP-LC retention time stood at 573 s. Molecule `CCCCN(C)C(=O)Cn1c(C2CC(=O)N(c3ccc(OC)cc3)C2)nc2ccccc21` (stereo not given) registered an RP-LC retention time of 712 s.

Consider `Cn1nc(C(=O)N2CCCC(C(=O)NC3CC3)C2)c2c1CCN(C(=O)Cc1cccc(F)c1)C2` (stereo not given), for which the RP-LC retention time was determined as 666 s.

Molecule `Cc1ccc(NC(=O)N2CCc3nc(-c4ccc(F)cc4)ncc3C2)c(C)c1` returned an RP-LC retention time of 979 s. On to `Cc1ccccc1-c1nc2cnccn2c1NCCC(=O)NCc1cccs1`, for which the RP-LC retention time came out at 649 s. On to `Cn1cc(C(=O)N2CC(n3cc(COc4ccc(F)cc4)nn3)C2)cn1`, for which the RP-LC retention time turned out to be 641 s.
